Source: ChEMBL document CHEMBL3045264, “Synthesis and antimicrobial activity of 5-((3-aryl-1-phenyl-1H-pyrazol-4-yl)methylene)thiazolidine-2,4-diones” (2012)
Values after ≈ are worked out from the molar mass of the structure shown. Active and inactive are the calls of the source. The calls are words filed in the database; no cut-off is given here.

Experiments:
Aspergillus niger = assay: Growth inhibition of Aspergillus niger at 4 mg/ml after 7 days by poisoned food technique; format: functional; settings: 168 h, read-out: GI
Aspergillus flavus = assay: Growth inhibition of Aspergillus flavus at 4 mg/ml after 7 days by poisoned food technique; format: functional; settings: 168 h, read-out: GI
Bacillus subtilis [1] = assay: Antibacterial activity against Bacillus subtilis MTCC 121 after 24 hr by macro dilution tube method; format: functional; settings: MTCC 121, 24 h
Staphylococcus aureus [2] = assay: Antibacterial activity against Staphylococcus aureus MTCC 96 after 24 hr by macro dilution tube method; format: functional; settings: MTCC 96, 24 h
Escherichia coli = assay: Antibacterial activity against Escherichia coli MTCC 1652 at 4 mg/ml after 24 hr by agar well diffusion method; format: functional, organism-based
Bacillus subtilis [3] = assay: Antibacterial activity against Bacillus subtilis MTCC 121 at 4 mg/ml after 24 hr by agar well diffusion method; format: functional; settings: MTCC 121, 24 h, read-out: DIZ
Staphylococcus aureus [4] = assay: Antibacterial activity against Staphylococcus aureus MTCC 96 at 4 mg/ml after 24 hr by agar well diffusion method; format: functional; settings: MTCC 96, 24 h, read-out: DIZ
Pseudomonas aeruginosa [5] = settings: MTCC 741, 4 mg/ml
Description: (§1) Antibacterial activity against Pseudomonas aeruginosa MTCC 741 at 4 mg/ml after 24 hr by agar well diffusion method

Pseudomonas aeruginosa [6] = assay: microbe, parasite or virus in culture; settings: MTCC 741, 24 h, read-out: DIZ
Description: as §1

Compound | inhibition of growth at 4000 µg/mL (Aspergillus niger) [%] | inhibition of growth at 4000 µg/mL (Aspergillus flavus) [%] | MIC (Bacillus subtilis [1]) [µg/mL] | MIC (Staphylococcus aureus [2]) [µg/mL] | diameter of the inhibition zone (DIZ) (Escherichia coli) | zone of inhibition at 4000 µg/mL (Bacillus subtilis [3]) [mm] | zone of inhibition at 4000 µg/mL (Staphylococcus aureus [4]) [mm] | DIZ (Pseudomonas aeruginosa [5]) | zone of inhibition at 4000 µg/mL (Pseudomonas aeruginosa [6]) [mm]
Cc1ccc(-c2nn(-c3ccccc3)cc2/C=C2\SC(=O)NC2=O)cc1 | 68.8 | 65.5 | 128 (≈ 354 µM) | 128 (≈ 354 µM) | inactive | 15.6 | 16.3 | inactive | 
O=C1NC(=O)/C(=C/c2cn(-c3ccccc3)nc2-c2ccc(Cl)cc2)S1 | 65.5 | 60 | 128 (≈ 335 µM) | 128 (≈ 335 µM) | inactive | 15 | 14.3 | inactive | 
O=C1NC(=O)/C(=C/c2cn(-c3ccccc3)nc2-c2ccc([N+](=O)[O-])cc2)S1 | 61.1 | 63.3 | 32 (≈ 81.6 µM) | 16 (≈ 40.8 µM) | inactive | 21.3 | 23.6 | inactive | 
OC(Cn1cncn1)(Cn1cncn1)c1ccc(F)cc1F [FLUCONAZOLE] | 81.1 | 77.7 |  |  |  |  |  |  | 
O=C1NC(=O)/C(=C/c2cn(-c3ccccc3)nc2-c2ccccc2)S1 | 62.5 | 60 | 128 (≈ 368 µM) | 32 (≈ 92.1 µM) | inactive | 16 | 20.3 | inactive | 
COc1ccc(-c2nn(-c3ccccc3)cc2/C=C2\SC(=O)NC2=O)cc1 | 60 | 57.7 | 128 (≈ 339 µM) | 128 (≈ 339 µM) | inactive | 14.3 | 13.6 | inactive | 
O=C(O)c1cn(C2CC2)c2cc(N3CCNCC3)c(F)cc2c1=O [CIPROFLOXACIN] |  |  | 5 (≈ 15.1 µM) | 5 (≈ 15.1 µM) |  | 24 | 26 |  | 22
O=C1NC(=O)/C(=C/c2cn(-c3ccccc3)nc2-c2ccc(O)cc2)S1 | 55.5 | 54.4 | 128 (≈ 352 µM) | 128 (≈ 352 µM) | inactive | 14.6 | 15 | inactive | 
O=C1NC(=O)/C(=C/c2cn(-c3ccccc3)nc2-c2ccc(Br)cc2)S1 | 61.1 | 62.5 | 32 (≈ 75.1 µM) | 64 (≈ 150 µM) | inactive | 21.6 | 18.6 | inactive | 
O=C1NC(=O)/C(=C/c2cn(-c3ccccc3)nc2-c2ccc(F)cc2)S1 | 82.5 | 78.8 | 32 (≈ 87.6 µM) | 32 (≈ 87.6 µM) | inactive | 21.6 | 20.6 | inactive | 
